Results as given in PMC6487404, “An Investigation into the Role of P-Glycoprotein in the Intestinal Absorption of Repaglinide: Assessed by Everted Gut Sac and Caco-2 Cell Line” (Iranian Journal of Pharmaceutical Research : IJPR, 2019).
Read-outs that look alike come from different tables or passages of the source. Each block holds one compound with its values, some of them ahead of it.

What was measured:
[1] = system: Caco-2 cell monolayers; experiment: Lucifer yellow passage across Caco-2 monolayers (monolayer integrity); format: in vitro ADME; conditions: 100 µg/mL, 37 °C, all the experiments
Protocol: To determine the cell monolayers integrity, the TEER values and percent of Lucifer yellow transport across the cell monolayers were measured. The TEER was measured using an EVOM 2 Epithelial Voltohmmeter (World Precision Instrument, Sarasota, USA). The transport studies were conducted when the TEER values were more than 300-400 Ωcm^2. A reduction in the TEER recorded across a monolayer indicates the dilation of tight junctions or a disruption of the monolayer ([16], [17]). Lucifer yellow is a small hydrophilic fluorescent molecule that is easily detectable by spectrophotofluorometer (485 nm excitation and 535 nm emission). The paracellular transfer of Lucifer yellow was determined and served as an additional marker for the epithelial cell tightness. In each set of experiments, Lucifer yellow was added (100 µg/mL) to the inserts and its passage was evaluated at 37 °C ([18]).
Where TEERmono is the cell monolayer and porous membrane resistance, TEERblank the porous membrane resistance, and A the porous membrane surface area. The Lucifer yellow transport was calculated according to the following equation ([18]):
Lucifer Yellow Passage% = [(Ft − Fb)/(F0 − Fb)] × 100
Ft is the fluorescence intensity of Lucifer yellow across the monolayer, F0 the initial fluorescence intensity of Lucifer yellow on the donor side, and Fb the fluorescence intensity of the blank sample (HBSS/HEPES buffer alone).

[2] = system: Caco-2 cell monolayers; experiment: Bi-directional transport of REG across Caco-2 cell monolayers; format: in vitro ADME; conditions: Caco-2 results, ER and effect of P-gp inhibitors
Protocol: (§1) Caco-2 cells (purchased from Pasteur Institute of Iran) were grown on 75 cm^2 plastic culture flasks, containing 15% (V/V) fetal bovine serum (FBS), 50% RPMI 1640, 34% DMEM and 1% (V/V) penicillin–streptomycin at 37 °C in a 95% humidified air with 5% CO2. The growth medium was changed every other day, and the cells were trypsinized using Trypsin-EDTA every 4 days for passage. The cells with passage numbers of 35-40 were used for the drug transport experiments.
(§2) When reaching 80–90% confluency, for transport study, the cells were seeded on polycarbonate filter inserts (with pore size of 0.4 µm, 1.13 cm^2 surface area, Korea) at a density of 5 × 10^4 cells/cm^2 and grown for 21 days to allow full expression of P-gp and appropriate tight junctions. To evaluate the integrity of cellular monolayer, the transepithelial electrical resistance (TEER) was measured and transport studies were conducted when the TEER values were more than 300-400 Ωcm^2. Before conducting drug transport experiments, the cells were washed twice with HBSS containing 25 mM HEPES (pH 7.4, 37 °C). Then, monolayers were pre-incubated at 37 °C for 30 min, and TEER values were measured. HBSS/HEPES buffer on both sides of the cell monolayers was then removed by aspiration and replaced with REG solution with various concentrations (20, 40 and 60 µM) on one side of the cell layer, apical (A) or basolateral (B), and fresh blank buffer on the other side. The volume of the buffer on the apical and basolateral side of the cell layer was 0.3 mL and 0.7 mL, respectively. The monolayers were incubated at 37 °C, placed in a shaker and shaken at 50 rpm during the transport process. The samples were taken from the receptor chamber (apical side or basolateral side in the case of B-A and A-B transport studies, respectively) at 30, 60, 90, 120 and 180 min, and then replaced with the same volume of the pre-warmed fresh buffer. Each experiment was repeated three times and REG concentration was determined by the HPLC system. The inhibition of REG efflux across Caco-2 cells was examined in the presence of two common P-gp inhibitors: verapamil (100 μM) and valspodar (5 μM).
(§3) HPLC was conducted using a system consisting of a Wellchrom K-1001 HPLC pump and a K-2700 diode array UV/VIS spectrophotometric detector (Knauer, Germany). The analyses were conducted at ambient temperature on a Perfect Sil RP-18 (150 mm × 4.6 mm i.d., Merck). The optimal mobile phase for REG was a mixture of acetonitrile and phosphate buffer 0.02 M (60:40 V/V) delivered at a flow rate of 1 mL/min. The detection wavelength was set at 242 nm and the injection volume was 100 μL. The column temperature was maintained at room temperature. The calibration curves were linear over the concentration range of 100-1000 ng/mL (R^2 > 0.994). The intra-day and inter-day coefficients of the variation (CV) were all less than 5%.
(§4) Apparent permeability coefficients (Papp) of REG were calculated in everted gut sac and Caco-2 cell line according to the below equation ([19]): […]
(§5) Where the dQ/dt (ng/min) is drug permeation rate, A (cm^2) the cross sectional area, and C0 (ng/mL) the initial concentration of REG in the donor chamber. In Caco-2 cell, the Papp of REG was calculated in both apical to basolateral (papp.AB), and basolateral to apical (papp.BA) directions. The efflux ratio (ER) of the drug in Caco-2 cell was assessed by calculating the ratio of papp.BA to papp.AB (papp.BA/papp.AB). TEER was calculated based on the following equation ([16]): […]

[3] = system: P-gp; experiment: as above; format: in vitro ADME; conditions: human, Caco-2, mean ± SD, n = 3; for efflux ratio at 180 min, 40 µM: read-out: ER (efflux ratio, papp.BA/papp.AB)
Protocol: as §1, §2, §3, §4, §5

[4] = as above; format: in vitro ADME; conditions: human, Caco-2, mean ± SD, n = 3
Protocol: as §1, §2, §3, §4, §5

[5] = Everted gut sac transport of REG, mucosal to serosal; format: in vitro ADME, rat; conditions: for Increase in drug permeability in presence of inhibitor: everted gut sac
Protocol: The everted sac method was used as previously described ([11]). All animal experiments were approved by the local ethics committee of Shahid Beheshti University of Medical Sciences (Tehran, Iran). Male Wistar rats weighing 230 and 250 g were fasted for 24 h but were allowed free access to water. Under deep anesthesia, the jejunum of the rat intestines (approximately 10 cm) was quickly excised, and the underlying mesenterium was removed. The segment was washed several times with normal saline solution and placed immediately into the oxygenated Krebs buffer (composition: NaCl 118 mM, NaHCO3 25 mM, KCl 4.7 mM, CaCl22.5 mM, MgSO4 1.2 mM, KH2PO4 1.2 mM, and d-glucose 11 mM). The intestine was carefully everted on a glass rod (3.0 mm diameter), filled with 2 mL of Krebs buffer, and divided into sacs approximately 4.5 cm in length with silk suture. The sacs were placed in the oxygenated buffer solution (pH 6.8). The solution was maintained at 37 °C with 95% O2 and 5% CO2 throughout the experiment.
Sacs were placed in 25 mL of oxygenated buffer solutions (pH 6.8) containing different concentrations of REG (10 to 100 µM) with or without the P-gp inhibitors at the typically used inhibitory concentrations: verapamil (100 µM), valspodar (5 µM), or ketoconazole (10 µM) ([12]-[14]). At various time points, 10, 20, 35, 45, 60, and 90 min, sacs were removed, blotted dry, and the serosal contents were collected. REG serosal concentration was determined by a validated HPLC method (Section 2.4). Each sac was weighed before and after the experiment to calculate the fluid volume inside the sac.
as §3, §4, §5

[6] = pH 7.4, with valspodar 5 µM, REG 40 µM + valspodar 5 µM
[7] = pH 7.4, with verapamil 100 µM, REG 40 µM + verapamil 100 µM

Transport (passage) of Lucifer yellow across the monolayer [1]: < 0.3%
Compound: Lucifer yellow

efflux ratio at 180 min, 40 µM ([3]; Caco-2, pH 7.4, with valspodar 5 µM, REG 40 µM + valspodar 5 µM): 0.68 ± 0.07
efflux ratio at 180 min, 40 µM ([3]; Caco-2, pH 7.4, with verapamil 100 µM, REG 40 µM + verapamil 100 µM): 0.61 ± 0.09
Papp A→B at 180 min, 40 µM [3, 6]: 16.4 ± 0.5 ×10⁻⁶ cm/s
Papp B→A at 180 min, 40 µM [3, 6]: 11.2 ×10⁻⁶ cm/s
Papp A→B at 180 min, 40 µM [3, 7]: 19.6 ± 2.7 ×10⁻⁶ cm/s
Papp B→A at 180 min, 40 µM [3, 7]: 11.8 ± 1.2 ×10⁻⁶ cm/s
efflux ratio at 180 min, 20 µM ([4]; Caco-2, pH 7.4, REG 20 µM, read-out: ER (efflux ratio, papp.BA/papp.AB)): 0.64 ± 0.02
efflux ratio at 180 min, 40 µM ([4]; Caco-2, pH 7.4, REG 40 µM, read-out: ER (efflux ratio, papp.BA/papp.AB)): 0.65 ± 0.05
efflux ratio at 180 min, 60 µM ([4]; Caco-2, pH 7.4, REG 60 µM, read-out: ER (efflux ratio, papp.BA/papp.AB)): 0.8 ± 0.07
Papp A→B at 180 min, 20 µM ([4]; pH 7.4, REG 20 µM): 16.7 ± 0.4 ×10⁻⁶ cm/s
Papp B→A at 180 min, 20 µM ([4]; pH 7.4, REG 20 µM): 10.7 ×10⁻⁶ cm/s
Papp A→B at 180 min, 40 µM ([4]; pH 7.4, REG 40 µM): 18.4 ± 1.2 ×10⁻⁶ cm/s
Papp B→A at 180 min, 40 µM ([4]; pH 7.4, REG 40 µM): 11.9 ×10⁻⁶ cm/s
Papp A→B at 180 min, 60 µM ([4]; pH 7.4, REG 60 µM): 18.3 ± 0.4 ×10⁻⁶ cm/s
Papp B→A at 180 min, 60 µM ([4]; pH 7.4, REG 60 µM): 14.6 ×10⁻⁶ cm/s
Increase in drug permeability in presence of inhibitor ([5]; REG 20 µM plus ketoconazole 10 µM versus control): 3 fold
Increase in drug permeability in presence of inhibitor ([5]; REG 20 µM plus valspodar 5 µM versus control): 2.6 fold
Increase in drug permeability in presence of inhibitor ([5]; REG 20 µM plus verapamil 100 µM versus control): 3 fold
Apparent permeability coefficient (Papp) across everted gut sacs ([5]; REG 40 µM, mucosal to serosal, rat jejunum, pH 6.8, mean ± SD, n = 3): 1.23 ± 0.19 × 10^-5 cm/s
Apparent permeability coefficient (Papp) across everted gut sacs ([5]; REG 100 µM, mucosal to serosal, rat jejunum, pH 6.8, mean ± SD, n = 3): 3.29 ± 0.58 × 10^-5 cm/s
Papp at 90 min, 40 µM ([5]; male, Wistar, rat, pH 6.8, drug concentration 40 µM, read-out: Papp in everted gut sacs (abstract)): 12.3 ×10⁻⁶ cm/s
Papp at 90 min, 100 µM ([5]; male, Wistar, rat, pH 6.8, drug concentration 100 µM, read-out: Papp in everted gut sacs (abstract)): 32.9 ×10⁻⁶ cm/s
Papp at 90 min, 10 µM ([5]; male, Wistar, REG 10 µM, mucosal to serosal, rat jejunum, pH 6.8, mean ± SD, n = 3, read-out: Apparent permeability coefficient (Papp) across everted gut sacs): 12.1 ± 1.4 ×10⁻⁶ cm/s
Papp at 90 min, 20 µM ([5]; male, Wistar, REG 20 µM, mucosal to serosal, rat jejunum, pH 6.8, mean ± SD, n = 3, read-out: Apparent permeability coefficient (Papp) across everted gut sacs): 11.6 ± 0.9 ×10⁻⁶ cm/s
Compound: CCOc1cc(CC(=O)N[C@@H](CC(C)C)c2ccccc2N2CCCCC2)ccc1C(=O)O [REG, Repaglinide]
P-gp substrate recognition (FDA guidance criteria) [2]: cannot be considered as a distinct P-gp substrate
